COc1cccc(C(=O)O)c1OC
solubility (mole fraction)
Details	278.15 K	283.15 K	288.15 K	293.15 K	298.15 K	303.15 K	308.15 K	313.15 K	318.15 K	323.15 K
in 1,4-dioxane	–	–	0.0585	0.069	0.0805	0.0934	0.11	0.127	0.148	–
in 2-ethoxyethanol	0.0418	0.0485	0.0552	0.0644	0.0733	0.084	0.0974	0.109	0.128	0.146
in acetonitrile	0.0108	0.0133	0.0167	0.0204	0.0254	0.0309	0.0385	0.0474	0.059	0.0734
in ethanol	0.0131	0.0165	0.0202	0.0252	0.0304	0.0384	0.0466	0.0592	0.0714	0.0884
in ethyl acetate	0.0133	0.0159	0.0189	0.023	0.0271	0.0332	0.0391	0.0464	0.057	0.0685
in ethylene glycol	0.0468	0.0529	0.0616	0.0708	0.0801	0.092	0.104	0.12	0.137	0.154
in isopropanol	0.00832	0.0106	0.0138	0.0175	0.0233	0.0291	0.0384	0.0482	0.0632	0.0791
in isopropyl acetate	0.00953	0.0111	0.0137	0.0162	0.0198	0.0237	0.029	0.0339	0.0425	0.0499
in methanol	0.0151	0.0192	0.0229	0.0288	0.0348	0.0446	0.0535	0.0682	0.0838	0.101
in methyl acetate	0.0166	0.0197	0.0236	0.0282	0.034	0.041	0.0494	0.0589	0.0719	0.0862
in n-butanol	0.00922	0.0116	0.0144	0.0183	0.0219	0.0284	0.0362	0.0449	0.0562	0.0716
in n-butyl acetate	0.00923	0.0111	0.0134	0.016	0.0195	0.0234	0.0286	0.0342	0.0428	0.0506
in n-propanol	0.00925	0.0122	0.0151	0.0197	0.0243	0.0316	0.0386	0.05	0.0618	0.0793
in n-propyl acetate	0.0106	0.0133	0.0154	0.0193	0.0224	0.0279	0.0326	0.0403	0.0468	0.0583
in water	4.79e-05	6.1e-05	7.77e-05	0.0001	0.000125	0.000162	0.000202	0.00026	0.000323	0.000399

Reference: BigSolDB 2.1
